Source: patent US20200157048A1, “(2E,4E)-5-PHENYL-PENTA-2,4-DIEN-1-ONE DERIVATIVE” (BIOWAY., INC, priority 2018, published 2020)

Molecular target: T1, SIRT1 (Homo sapiens, UniProt Q96EB6)
T1 construct: purchased Cayman (Ann Arbor, Mich., USA)
T1 sequence (Q96EB6 1-747): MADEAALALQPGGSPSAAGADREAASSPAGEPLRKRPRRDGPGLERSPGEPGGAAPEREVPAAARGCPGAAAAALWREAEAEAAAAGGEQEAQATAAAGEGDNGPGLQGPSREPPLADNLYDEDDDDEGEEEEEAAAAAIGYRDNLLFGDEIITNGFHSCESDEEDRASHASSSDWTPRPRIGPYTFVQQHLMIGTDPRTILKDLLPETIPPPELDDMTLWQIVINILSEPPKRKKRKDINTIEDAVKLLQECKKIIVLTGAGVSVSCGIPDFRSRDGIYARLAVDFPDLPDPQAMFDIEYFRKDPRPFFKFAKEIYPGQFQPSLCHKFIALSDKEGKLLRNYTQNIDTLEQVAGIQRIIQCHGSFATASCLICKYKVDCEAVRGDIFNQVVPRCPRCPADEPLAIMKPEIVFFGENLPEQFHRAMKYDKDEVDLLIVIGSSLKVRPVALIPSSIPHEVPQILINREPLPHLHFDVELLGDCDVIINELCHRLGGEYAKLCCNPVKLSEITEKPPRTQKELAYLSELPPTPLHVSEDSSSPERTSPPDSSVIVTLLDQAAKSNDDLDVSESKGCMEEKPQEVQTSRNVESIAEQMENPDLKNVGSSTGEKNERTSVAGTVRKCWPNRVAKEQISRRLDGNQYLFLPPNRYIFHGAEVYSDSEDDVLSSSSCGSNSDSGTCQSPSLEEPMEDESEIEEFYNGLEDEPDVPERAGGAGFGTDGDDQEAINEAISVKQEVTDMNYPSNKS
Assay: SIRT1 direct fluorescent assay
Assay type: biochemical
Conditions: 20 μM
Protocol: All materials were provided from a Sirt1 direct fluorescent screening assay kit (Cayman, Ann Arbor, Mich., USA).
SIRT1, p53 conjugated aminomethyl coumarin (AMC) protein, and 3 mM NAD^+ were added to a diluted analysis buffer (50 mM Tris-HCl, pH 8.0, 137 mM NaCl, 2.7 mM KCl, and 1 mM MgCl2).
25 μL of the analysis buffer, 5 μL of diluted SIRT1, and 5 μL of a solvent were added to each of three 100% initial activity wells of a 96-well plate.
30 μL of the analysis buffer and 5 μL of a solvent were added to each of three background wells of the 96-well plate.
25 μL of the analysis buffer, 5 μL of diluted SIRT1, and 5 μL of a diluted test compound were added to each of three sample wells of the 96-well plate. The final DMSO concentration was less than 2%.
15 μL of a 3 mM NAD^+-containing substrate solution was added to all wells to begin the reaction. The 96-well plate was covered with a plate cover, and then incubated in a shaker at room temperature (25 to 30° C.) for 45 minutes.
A stop/developing solution was prepared. To prepare the final 5 mL solution, 200 μL of nicotinamide (NAM, Sigma-Aldrich) was added to a color developing powder weighing 30 mg, 4.8 mL of a diluted analysis buffer was added thereto, and the resulting mixture was stirred until the powder became a solution.
The plate cover was removed, and 50 μL of the stop/developing solution was added to each well.
The 96-well plate was covered with a plate cover, and incubated at room temperature (25 to 30° C.) for 30 minutes.
The plate cover was removed, and the plate was read using Cytation 5 at an excitation wavelength of 360 nm and an emission wavelength of 450 nm.
The mean fluorescence of each sample was measured.
The fluorescence of the background wells was subtracted from the fluorescence of the 100% initial activity wells and sample wells.
To determine the percent of each sample, each sample value was subtracted from the 100% initial activity value, and the resulting value was divided by the 100% initial activity value and then multiplied by 100 and added to 100, which was expressed as a percentage.

## CSc1ccc(/C=C/C=C/C(=O)N2CCCCC2)cc1 [YU2014, (2E,4E)-5-(4-(methylthio)phenyl)-1-(piperidine-1-yl)penta-2,4-dien-1-one]
  increase of SIRT1 activity (FIG. 18): about 20%
